{"source": "patent US20160000720A1", "about": "“Pharmaceutical compositions comprising Tadalafil” (AUROBINDO PHARMA LIMITED, priority 2013, published 2016)", "origin": "cited, not measured here", "data": [{"smiles": "CN1CC(=O)N2[C@H](c3ccc4c(c3)OCO4)c3[nH]c4ccccc4c3C[C@@H]2C1=O", "note": "[Tadalafil, (6R,12aR)-6-(1,3-benzodioxol-5-yl)-2,3,6,7,12,12a hexa hydro-2-methylpyrazino[1′,2′:1,6]pyrido[3,4-b]indole-1,4-dione]", "values": [{"measurement": "solubility in water (in words)", "result": "practically insoluble in water"}, {"measurement": "soluble in water in a concentration up to", "setting": "according to WO 01/08687", "result": "up to 2 μg/ml"}]}]}
